Measurements: PubChem BioAssay (NCI)
Several values for one entry are separate records, joined by “and”; a condition that tells them apart may be missing. Equal entries are not always repeated.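 Tested at 5 concentrations; 48 h exposure; 96-well plates; endpoints linearly interpolated, else capped at highest concentration. At the GI50, growth is halved. TGI: total growth inhibition.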

Key:
Assay in all cases: inhibition of tumour cell growth, NCI panel, 48 h
SN12C renal = test system: SN12C renal
PC-3 prostate = test system: PC-3 prostate
MOLT-4 leukemia = test system: MOLT-4 leukemia
SK-MEL-2 melanoma = test system: SK-MEL-2 melanoma
MDA-MB-231 breast = test system: MDA-MB-231 breast
SW-620 colon = test system: SW-620 colon
LOX IMVI melanoma = test system: LOX IMVI melanoma
ACHN renal = test system: ACHN renal
UACC-62 melanoma = test system: UACC-62 melanoma
OVCAR-4 ovarian = test system: OVCAR-4 ovarian

SMILES | GI50 (SN12C renal) | TGI (SN12C renal) | GI50 (PC-3 prostate) | TGI (PC-3 prostate) | GI50 (MOLT-4 leukemia) | TGI (MOLT-4 leukemia) | GI50 (SK-MEL-2 melanoma) | TGI (SK-MEL-2 melanoma) | TGI (MDA-MB-231 breast) | GI50 (SW-620 colon) | TGI (SW-620 colon) | GI50 (LOX IMVI melanoma) | TGI (LOX IMVI melanoma) | GI50 (ACHN renal) | TGI (ACHN renal) | GI50 (UACC-62 melanoma) | TGI (UACC-62 melanoma) | GI50 (OVCAR-4 ovarian) | TGI (OVCAR-4 ovarian) | GI50 (MDA-MB-231 breast)
CN(Cc1cnc2nc(N)nc(N)c2n1)c1c(Cl)cc(C(=O)NC(CCC(=O)O)C(=O)O)cc1Br (stereo not drawn) | < 0.01 µM | > 100 µM | < 0.01 µM | > 80.1 µM | < 0.01 µM | > 100 µM | < 0.01 µM | > 100 µM | > 100 µM | < 0.01 µM | > 100 µM | < 0.01 µM | > 100 µM | < 0.01 µM | > 100 µM | < 0.0118 µM | > 100 µM | > 100 µM | > 100 µM | 
CCCCCCC1CCCCN1C(c1ccccc1)C(O)c1ccccc1 (stereo not drawn) | 6.5 µM | 20.3 µM | 6.93 µM | 20.6 µM | 4.96 µM | 19.4 µM | 5.33 µM | 20.5 µM | 20.3 µM | 5.35 µM | 18.4 µM | 3.04 µM | 12.4 µM | 10 µM | 21.6 µM | 11.7 µM | 24.8 µM | 7.98 µM | 21.7 µM | 6.79 µM
Cc1cccc(NC(=O)CSc2nnc(-c3ccc(N=Cc4ccc(Cl)cc4)cc3)o2)c1 |  | > 100 µM |  |  |  | > 100 µM |  | > 100 µM |  |  | > 100 µM |  | > 100 µM |  | > 100 µM |  | > 100 µM |  | > 100 µM | 
COc1cc2c(c(OC)c1OC)-c1ccc(SC)c(=O)cc1C(CC(=O)Oc1ccccc1F)C2 (stereo not drawn) |  | > 7.5 µM |  |  |  | > 7.5 µM |  | 0.125 µM |  |  | > 7.5 µM |  | 4.28 µM |  | > 7.5 µM |  | 0.0688 µM |  | > 7.5 µM | 
CC1(O)CC2C(CC1SCc1ccccc1)C2(C)C (stereo not drawn) |  | 43 µM and 29.5 µM |  |  | 4.09 µM and 18.4 µM | 25.1 µM and 47.7 µM |  | 33.3 µM and 26.1 µM |  |  | 46.8 µM and 32.9 µM |  | 29.3 µM and 31.5 µM |  | 34.5 µM and 30.4 µM |  | 92.3 µM and 33.4 µM | 52.8 µM and 15.6 µM | > 100 µM and 29.3 µM | 
Cc1cc(N(CCC#N)CCC#N)ccc1/C=C1N=C(/C=C\c2ccccc2)N(c2ccc(C(=O)O)cc2)C\1=O |  | > 100 µM |  |  |  | > 100 µM |  | > 100 µM |  |  | > 100 µM |  | > 100 µM |  | > 100 µM |  | > 100 µM |  | > 100 µM | 
Cc1ncc([N+](=O)[O-])n1CCOc1ccc(C(=O)/C=C/c2ccc(C(F)(F)F)cc2)cc1 | 3.03 µM | 11.6 µM | 2.25 µM | 12.2 µM | 2.17 µM | 6.29 µM | 3.43 µM | 13.6 µM | 15.5 µM | 1.76 µM | 4.03 µM | 2.21 µM | 5.6 µM | 2.77 µM | 9.14 µM | 4.73 µM | 17.6 µM | 2.99 µM | 14.6 µM | 3.53 µM
CSc1ccc2c(c1)N(CCCN(C)C)c1ccccc1S2 |  | 28.5 µM |  | 23.8 µM |  | 20 µM |  | 29.5 µM | 26.3 µM |  | 41.8 µM |  | 32.4 µM |  | 24.1 µM |  | 22.4 µM |  | 24.5 µM | 
CC1(C)N=C(N)N=C(N)N1c1ccc(CCCCCCc2ccc(S(=O)(=O)F)cc2)cc1 |  | 7.02 µM |  | 15.4 µM |  |  |  | 30.2 µM | 16.5 µM |  | 4.44 µM |  | > 20.9 µM |  | 14.4 µM |  | 0.604 µM |  | > 100 µM | 
COc1cc([C@H]2c3cc4c(cc3[C@H](NCc3ccc(F)cc3)C3COC(=O)[C@H]32)OCO4)cc(OC)c1O (stereo partly drawn) |  | 6.67 µM |  |  |  | 6.42 µM |  | 33.1 µM |  |  | 21.4 µM |  | 17 µM |  | 4.34 µM |  | 6.68 µM |  | > 100 µM | 
COc1ccccc1CNCCCN1C(=O)c2ccc3c4c(ccc(c24)C1=O)C(=O)N(CCCNCCCCN)C3=O |  |  | 0.307 µM | 2.35 µM | 0.324 µM | 1.26 µM | 0.233 µM | 0.49 µM | 2.78 µM | 0.161 µM | 0.858 µM | 0.202 µM | 0.557 µM | 0.576 µM | 11.1 µM | 0.237 µM | 0.674 µM | 0.165 µM | 0.319 µM | 0.236 µM
COc1ccc(S(=O)(=O)NNS(C)(=O)=O)cc1OC |  | > 100 µM |  |  |  | > 100 µM |  | > 100 µM |  |  | > 100 µM |  | > 100 µM |  | > 100 µM |  | > 100 µM |  | > 100 µM | 
CCOC(=O)c1cnc2c(ccc3ncccc32)c1OCC |  | > 100 µM |  |  |  | > 100 µM |  | > 100 µM |  |  | > 100 µM |  | > 100 µM |  | > 100 µM |  | > 100 µM |  | > 100 µM | 
COc1ccc(N=C2C(=O)Nc3ccc(Br)cc32)cc1 |  | 40.1 µM |  | > 100 µM |  | 74.4 µM |  |  | 35.3 µM |  | 63.8 µM |  | 27.4 µM |  | 38.6 µM |  | 19.9 µM |  |  | 
C=C(c1ccc(C(=O)NCCCn2ccnc2)cc1)c1cc2c(cc1C)C(C)(C)CCC2(C)C | < 0.0195 µM | 10.8 µM | 0.158 µM | > 51.7 µM | 2.65 µM | > 100 µM | 2.71 µM | 7.33 µM | 9.78 µM |  |  | 0.395 µM | 4.48 µM | 2.16 µM | 14.1 µM | 1.67 µM | 3.92 µM | 4.1 µM | 26 µM | 1.44 µM
O=C(/C=N/O)Nc1cccc(Cl)c1I |  | > 100 µM |  |  |  | > 100 µM |  | > 100 µM |  |  | > 100 µM |  | > 100 µM |  | > 100 µM |  | > 100 µM |  | > 100 µM | 
CNC(=O)N(CCCCC(NC(C)=O)C(=O)NCc1ccccc1)Cc1ccccc1 (stereo not drawn) |  | > 100 µM |  |  |  | > 100 µM |  | > 100 µM |  |  | > 100 µM |  | > 100 µM |  | > 100 µM |  | > 100 µM |  | > 100 µM | 
OCCN1CCCN(CCCN2c3ccccc3Sc3ccc(C(F)(F)F)cc32)CC1 | 4.5 µM | 18.5 µM |  |  | 2.39 µM | 5.2 µM | 2.07 µM | 4.08 µM | 6.15 µM | 1.86 µM | 4.15 µM | 1.73 µM | 3.21 µM | 3.56 µM | 13.4 µM |  |  | 3.11 µM | 13.4 µM | 2.31 µM
COc1cc(COC(=O)N(C)[C@@H](Cc2ccccc2)C(=O)O)c([N+](=O)[O-])cc1OC |  | > 100 µM |  | > 100 µM |  | > 100 µM |  |  |  |  | > 100 µM |  |  |  | > 100 µM |  | > 100 µM |  |  | 
